In article PMC7980035 (The Journal of Biological Chemistry, 2021):
Where two headings read alike, the source gives them in different places.

Key:
[1] = assay type: physicochemical; conditions: pH 7.3
SARS 3C-like proteinase [2] = target: T1, SARS 3C-like proteinase (Severe acute respiratory syndrome coronavirus, UniProt P0C6X7); conditions: pH 7.3
SARS 3C-like proteinase [3] = target: T1, SARS 3C-like proteinase; conditions: pH 7.3; remark: listed apart in the source
[4] = pH 7.3
[5] = target: SARS coronavirus 3C-like proteinase, C-terminal His6 tag (plasmid pET 3CLP-21x) (SARS coronavirus) (UniProt P0C6X7); assay: SEC

| Substance | Calculated secondary structure content: Helix [1] | Calculated secondary structure content: Other [1] | Calculated secondary structure content: Sheet [1] | Calculated secondary structure content: Tum [1] | Km (SARS 3C-like proteinase [2]) [µM] | kcat (SARS 3C-like proteinase [2]) [s⁻¹] | kcat/Km (SARS 3C-like proteinase [2]) | kcat/Km (SARS 3C-like proteinase [3]) | solubility [4] | Kd [5] [µM] |
| --- | --- | --- | --- | --- | --- | --- | --- | --- | --- | --- |
| ATVRLQ/AGNAT [Peptide S06] | 2 | 43 | 25 | 30 | 1440 ± 470 | 0.0548 ± 0.0178 | 2.29 ± 0.09 ^a mM^-1 min^-1 | – | – | – |
| FYPKLQ/ASQAW [Peptide S11] | 2 | 36 | 30 | 32 | 549 ± 105 | 0.0262 ± 0.00467 | 2.86 ± 0.21 ^a mM^-1 min^-1 | – | – | – |
| KVATVQ/SKMSD [Peptide S03] | 2 | 46 | 25 | 28 | – | – | – | 0.353 ± 0.013 ^b mM^-1 min^-1 | – | – |
| NRATLQ/AIASE [Peptide S04] | 2 | 45 | 24 | 30 | – | – | – | 0.556 ± 0.126 ^b mM^-1 min^-1 | – | – |
| NVATLQ/AENVT [Peptide S09] | – | – | – | – | – | – | – | 0.976 ± 0.014 ^b mM^-1 min^-1 | very low solubility | – |
| PHTVLQ/AVGAC [Peptide S08] | 5 | 45 | 21 | 29 | 1940 ± 660 | 0.028 ± 0.0095 | 0.865 ± 0.028 ^a mM^-1 min^-1 | – | – | – |
| REPLMQ/SADAS [Peptide S07] | 1 | 41 | 18 | 40 | – | – | – | 0.0176 ± 0.0022 ^b mM^-1 min^-1 | – | – |
| SARS coronavirus 3C-like proteinase, C-terminal His6 tag (plasmid pET 3CLP-21x) (from UniProt P0C6X7 3241-3546) (enzyme) | – | – | – | – | – | – | – | – | – | 100 |
| SAVKLQ/NNELS [Peptide S05] | 10 | 44 | 19 | 27 | – | – | – | 0.202 ± 0.003 ^b mM^-1 min^-1 | – | – |
| SGVTFQ/GKFKK [Peptide S02] | 3 | 31 | 42 | 24 | 583 ± 86 | 0.0425 ± 0.00583 | 4.38 ± 0.26 ^a mM^-1 min^-1 | – | – | – |
| TFTRLQ/SLENV [Peptide S10] | 4 | 41 | 22 | 33 | 286 ± 20 | 0.0141 ± 0.00085 | 2.96 ± 0.11 ^a mM^-1 min^-1 | – | – | – |
